Measured values as given in US7834010B2, “Modulators of peripheral 5-HT receptors” (Serodus AS, priority 2003, dated 2010).
Several values for one entry are separate records, joined by “and”; a condition that tells them apart may be missing. Equal values may be shown once.

Columns and labels:
[1] = target: T1, human 5-HT4(b) receptors (Homo sapiens, UniProt Q13639); assay: Radioligand binding assay with [3H]GR113808 on membranes of HEK293 cells stably expressing human 5-HT4(b) receptors; details: competition with [3H]GR113808, HEK293 membranes, each line one individual measurement, read-out: Binding affinity (pKd value) (individual measurements) (converted)
T1 construct: expressed in transfected cells; membranes prepared
Experimental: (§1) Establishment of HEK293 Cell Lines Stably Expressing Human 5-HT4(b) Receptors
(§2) The development of HEK293 cell lines stably expressing human 5-HT4(b) receptors was described and published previously (Bach et al. 2001). Briefly, HEK293 cells (ATCC) were grown in Dulbecco's modified Eagle's medium with 10% fetal calf serum and penicillin (100 U/ml) and streptomycin (100 μg/ml). Cells were transfected with plasmid DNA (pcDNA3.1(−) containing human 5-HT4(b) receptor cDNA) using SuperFect Transfection Reagent (QIAGEN) according to the manufacturers protocol. Serial dilutions of transfected cells were plated in 96 well plates containing G418 (geneticin; Amersham) at 0.4 mg/ml, and isolated single colonies of cells transformed to the neomycin-resistant phenotype were expanded and tested for expression of serotonin receptors by measuring serotonin-stimulated adenylyl cyclase activity (Themmen et al. 1993). Transformed cells were always grown in the presence of G418 (0.4 mg/ml). For binding and adenylyl cyclase analysis, stable cell lines were grown and maintained in UltraCULTURE™ general purpose serum-free medium (BioWhittaker, Walkersville, Md., USA), supplemented with L-glutamine (2 mM), penicillin (100 U/ml) and streptomycin (100 μg/ml).
Membrane Preparation for Radioligand Binding and Adenylyl Cyclase Assay […]
Binding assays were performed in 96-well, round-bottom microtiter plates with total reaction volumes of 50-200 μl, containing the indicated concentration of [^3H]GR113808 with or without competing unlabelled ligand in a binding buffer containing 50 mM Tris-HCl (pH 7.5 at RT), 1 mM EDTA, 5 mM EGTA, 2 mM MgCl2, 1 mM ascorbate, 0.1% BSA and 100 μM GTP. […] The filters were dried and counted at approximately […] efficiency in a Top-Count liquid scintillation counter (Packard), using 20 μl per filter well of Micro-Scint liquid scintillation cocktail (Packard).
Binding and adenylyl cyclase data were analyzed by non-linear regression using Microsoft Excel with the Solver add-in, using the below equations. […]

[2] = target: T1, human 5-HT4(b) receptors; assay: Adenylyl cyclase assay in membranes of HEK293 cells stably expressing human 5-HT4(b) receptors; type: biochemical; details: for Kb: each line one individual measurement, read-out: Antagonist pKb value (individual measurements) (converted)
Experimental: as §1, §2
Membrane Preparation for Radioligand Binding and Adenylyl Cyclase Assay
Membranes were prepared from stably transfected HEK293 cells cultured on 150-mm cell culture dishes and grown to 80% confluence in serum-free medium (UltraCULTURE™, BioWhittaker) with penicillin (10 U/ml) and 2 mM L-Glutamine (BioWhittaker). Cells were washed twice with 10 ml ice-cold HBSS, scraped with a rubber policeman in 10 ml ice-cold HBSS and collected by centrifugation at 800 g for 5 min at 4° C. The cell pellet was resuspended in 1 ml/dish ice-cold STE buffer (27% (w/v) sucrose, 50 mM Tris-HCl, pH 7.5 at 20° C., 5 mM EDTA) and homogenized with an Ultra-Turrax (IKA) homogenizer, using five 10 s bursts with 30 s cooling in ice-water between bursts. To remove nuclei, the homogenate was centrifuged at 300 g for 5 min at 4° C. and the supernatant was further centrifuged at 17000 g for 20 min at 4° C. and the supernatant removed. The crude membrane pellet was resuspended with ten strokes of tight fitting pestle B in a Dounce glass-glass homogenizer in 1 ml/dish ice-cold TE (50 mM Tris-HCl, pH 7.5 at RT, 5 mM EDTA). This procedure was repeated twice and the resuspended membranes were finally aliquoted and flash frozen in liquid nitrogen and stored at −70° C. until use.
Adenylyl cyclase activity was measured by determining conversion of [α-^32P]ATP to [^32P]cAMP in membranes prepared in STE by homogenization of cells grown and washed as described above in a Dounce glass-glass homogenizer by 10 strokes with the tight-fitting pestle. Membranes were kept on ice prior to assay. Adenylyl cyclase activities were measured on 10-μl aliquots in a final volume of 50 μl in the presence of 0.1 mM [α-^32P]ATP (1-2×10^6 cpm/assay), 4 mM MgCl2, 20 μM GTP, 1 mM EDTA, 1 mM [^3H]cAMP (ca. 10,000 cpm/assay), 1 μM 3-isobutyl-1-methyl xanthine (IBMX; Sigma), a nucleoside triphosphate regenerating system consisting of 20 mM creatine phosphate (Sigma), 0.2 mg/ml creatine phosphokinase (Sigma) and 40 U/ml myokinase (Sigma) and additives described in the text and figures. When forskolin (Calbiochem, La Jolla, Calif., USA) was used the concentration was 100 μM. Incubations were for 20 min at 32EC. Cyclic AMP formed was quantified by the double column chromatography system of Salomon et al. (1974) as modified by Bockaert et al. (1976).
Binding and adenylyl cyclase data were analyzed by non-linear regression using Microsoft Excel with the Solver add-in, using the below equations.
Activation of adenylyl cyclase—The data were fit to the equation Y=a+(b−a)x/(c+x) where a is basal adenylyl cyclase activity, b is maximal adenylyl cyclase activity stimulated by the agonist, c is EC50, and x is the concentration of agonist.

T1 sequence (Q13639 whole entry): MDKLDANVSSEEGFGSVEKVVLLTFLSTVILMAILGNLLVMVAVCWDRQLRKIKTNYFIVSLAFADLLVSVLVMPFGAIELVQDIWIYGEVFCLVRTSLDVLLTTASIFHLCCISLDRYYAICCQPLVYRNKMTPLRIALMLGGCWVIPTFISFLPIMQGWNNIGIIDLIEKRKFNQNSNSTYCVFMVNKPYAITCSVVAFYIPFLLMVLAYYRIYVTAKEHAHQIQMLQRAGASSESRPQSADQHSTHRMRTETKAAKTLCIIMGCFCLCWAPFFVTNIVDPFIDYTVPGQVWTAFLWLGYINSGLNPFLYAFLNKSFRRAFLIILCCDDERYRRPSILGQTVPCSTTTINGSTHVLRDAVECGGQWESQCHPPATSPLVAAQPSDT

Kd [1] | Agonist/Antagonist properties [2] | Kb [2] | SMILES
0.0174 nM | Antagonist | 0.132 nM and 0.17 nM | CCCCN1CCC(CNC(=O)c2c3n(c4ccccc24)CCCO3)CC1 [SB207266]
0.0282 nM and 0.0219 nM | Antagonist | 0.129 nM | CCCCN1CCC(COC(=O)c2c[nH]c3ccccc23)CC1 [DDL-6002]

SMILES | Kd [1] | Agonist/Antagonist properties [2] | Kb [2]
Cn1cc(C(=O)OCC2CCN(CCNS(C)(=O)=O)CC2)c2ccccc21 [GR113808, 1-methyl-1H-indole-3-carboxylic acid, [1-[2-[(methylsulfonyl)amino]ethyl]-4-piperidinyl]methyl ester] | 0.115 nM and 0.049 nM and 0.0617 nM and 0.0195 nM | Antagonist | 0.105 nM and 0.135 nM and 0.17 nM and 0.224 nM and 0.151 nM and 0.178 nM
